Experimental data published in Sander's compilation of Henry's law constants (doi:10.5985/jec.7.81).

Assay: Henry solubility constant Hcp at 298.15 K (mol/(m3 Pa))
Conditions: reference: Kondoh and Nakajima (1997)

| Structure (SMILES) | Henry solubility constant Hcp |
| --- | --- |
| Clc1ccc(Cl)cc1 [1,4-dichlorobenzene] | 0.0047 |
| CCC(C)c1ccccc1 (centres undefined) [(1-methylpropyl)-benzene] | 0.00075 |
| CC=C(Cl)Cl [1,1-dichloropropene] | 0.00054 |
| CC(Cl)CCl (centres undefined) [1,2-dichloropropane] | 0.0043 |
| CC(C)(Cl)Cl [2,2-dichloropropane] | 0.00071 |
| ClCCCCl [1,3-dichloropropane] | 0.011 |
| Cl/C=C/CCl [trans-1,3-dichloropropene] | 0.01 |
| ClCC(Cl)Cl [1,1,2-trichloroethane] | 0.011 |
| ClC(Cl)=C(Cl)Cl [tetrachloroethene] | 0.00069 |
| Cc1ccc(C)cc1 [1,4-dimethylbenzene] | 0.0015 |
| ClC(Cl)Br [bromodichloromethane] | 0.0054 |
| ClC=C(Cl)Cl [trichloroethene] | 0.0011 |
| Cc1ccccc1C [1,2-dimethylbenzene] | 0.0019 |
| Brc1ccccc1 [bromobenzene] | 0.0049 |
| ClC(Cl)(Cl)Cl [tetrachloromethane] | 0.00044 |
| CC(C)(C)c1ccccc1 [(1,1-dimethylethyl)-benzene] | 0.00094 |
| ClC(Br)Br [dibromochloromethane] | 0.0098 |
| BrCBr [dibromomethane] | 0.012 |
| Cc1ccc(C)c(C)c1 [1,2,4-trimethylbenzene] | 0.0023 |
| Clc1cccc(Cl)c1 [1,3-dichlorobenzene] | 0.0038 |
| ClCC(Br)CBr (centres undefined) [1,2-dibromo-3-chloropropane] | 0.5 |
| CCCCc1ccccc1 [butylbenzene] | 0.00091 |

| Structure (SMILES) | Henry solubility constant Hcp |
| --- | --- |
| ClCC(Cl)(Cl)Cl [1,1,1,2-tetrachloroethane] | 0.0043 |
| C=Cc1ccccc1 [ethenylbenzene] | 0.0038 |
| Cc1cccc(C)c1 [1,3-dimethylbenzene] | 0.0015 |
| c1ccc2ccccc2c1 [naphthalene] | 0.017 |
| Cc1cc(C)cc(C)c1 [1,3,5-trimethylbenzene] | 0.0015 |
| Cc1ccc(Cl)cc1 [1-chloro-4-methylbenzene] | 0.0029 |
| C=C(Cl)Cl [1,1-dichloroethene] | 0.00046 |
| Cc1ccc(C(C)C)cc1 [1-methyl-4-(1-methylethyl)-benzene] | 0.001 |
| BrC(Br)Br [tribromomethane] | 0.014 |
| Clc1cccc(Cl)c1Cl [1,2,3-trichlorobenzene] | 0.015 |
| ClCBr [bromochloromethane] | 0.0078 |
| ClCCl [dichloromethane] | 0.0037 |
| c1ccccc1 [benzene] | 0.0018 |
| Cl/C=C\CCl [cis-1,3-dichloropropene] | 0.0063 |
| CC(C)c1ccccc1 [(2-propyl)-benzene] | 0.001 |
| CCCc1ccccc1 [propylbenzene] | 0.0011 |
| CC(Cl)(Cl)Cl [1,1,1-trichloroethane] | 0.00067 |
| Cc1ccccc1 [methylbenzene] | 0.0017 |
| Clc1ccccc1 [chlorobenzene] | 0.003 |
| CCc1ccccc1 [ethylbenzene] | 0.0014 |
| ClC(Cl)=C(Cl)C(Cl)=C(Cl)Cl [hexachlorobutadiene] | 0.0007 |
| ClCC(Cl)CCl [1,2,3-trichloropropane] | 0.028 |
